In PubChem BioAssay AID1259408 (Genetic Toxicology Data Bank (GENE-TOX), 2018):
Calls of active or inactive are those of the source. The rule behind the calls is not given here.

Tested on: GENE-TOX genotoxicity assays, various organisms and cells
Assay: GENE-TOX mutagenicity studies
Details: for call: Assay Type: In vivo carcinogenicity studies, Assay Code: CCGT
[1] = Species/Cell Type: Nonhuman, Evaluation Type: Evaluation A (Pre-1980)
[2] = Species/Cell Type: Salmonella typhimurium (one or more of the five standard strains: TA98, TA100, TA1535, TA1537, and TA1538), Assay Type: Histidine reverse gene mutation, Ames assay, Assay Code: SAL+, Evaluation Type: Evaluation A (Pre-1980)
[3] = Species/Cell Type: Salmonella typhimurium (one or more of the five standard strains: TA98, TA100, TA1535, TA1537, and TA1538), Assay Type: Histidine reverse gene mutation, Ames assay, Assay Code: SAL+*, Activation: With metabolic activation, Evaluation Type: Evaluation A (Pre-1980)

CS(=O)(=O)O
mutagenic call (Species/Cell Type: Drosophila melanogaster, Assay Type: Sex-linked recessive lethal gene mutation, Assay Code: SRLT, Evaluation Type: Evaluation A (Pre-1980)): no conclusion | mutagenic call (Species/Cell Type: Escherichia coli polA (W3119 vs P3478), Assay Type: Rec-assay, DNA effects (bacterial DNA repair), Assay Code: RE1T, Evaluation Type: Evaluation A (Pre-1980)): no conclusion

COP(=O)(OC)OC=C(Cl)Cl
mutagenic call (Species/Cell Type: Allium cepa, Assay Type: Chromosome aberrations, Assay Code: ALC+D, Dose Response: With dose response, Evaluation Type: Evaluation A (Pre-1980)): active; positive | mutagenic call (Species/Cell Type: Bacillus subtilis (H17 vs M45), Assay Type: Rec-assay, spot test, DNA effects (bacterial DNA repair), Assay Code: REW+, Evaluation Type: Evaluation A (Pre-1980)): active; positive | mutagenic call (Species/Cell Type: Drosophila melanogaster, Assay Type: Sex-linked recessive lethal gene mutation, Assay Code: SRL-, Evaluation Type: Evaluation A (Pre-1980)): inactive; negative | mutagenic call (Species/Cell Type: Escherichia coli WP2, Assay Type: Tryptophan reverse gene mutation, Assay Code: WP2+, Evaluation Type: Evaluation A (Pre-1980)): active; positive | mutagenic call (Species/Cell Type: Escherichia coli WP2 UVRA, Assay Type: Tryptophan reverse gene mutation, Assay Code: WPU+, Evaluation Type: Evaluation A (Pre-1980)): active; positive | mutagenic call (Species/Cell Type: Escherichia coli polA (W3119 vs P3478), Assay Type: Rec-assay, DNA effects (bacterial DNA repair), Assay Code: RE1+, Evaluation Type: Evaluation A (Pre-1980)): active; positive | mutagenic call (Species/Cell Type: Human lymphocytes, Assay Type: Sister-chromatid exchange (SCE) in vitro, Assay Code: SCL-, Evaluation Type: Evaluation A (Pre-1980)): inactive; negative | mutagenic call (Species/Cell Type: Human lymphocytes, Assay Type: Sister-chromatid exchange (SCE) in vitro, Assay Code: SCLT, Evaluation Type: Evaluation B (Post-1980)): no conclusion | mutagenic call (Species/Cell Type: Human, Assay Type: Sister-chromatid exchange (SCE) in vitro, Assay Code: SC1-, Evaluation Type: Evaluation A (Pre-1980)): inactive; negative | mutagenic call (Species/Cell Type: Human, Assay Type: Sister-chromatid exchange (SCE) in vitro, Assay Code: SC1T, Evaluation Type: Evaluation B (Post-1980)): no conclusion | mutagenic call (Species/Cell Type: Mammalian germ cells, Sex: Male, Assay Type: Chromosome aberrations in vivo, Assay Code: CY9-, Evaluation Type: Evaluation A (Pre-1980)): inactive; negative | mutagenic call (Species/Cell Type: Mammalian polychromatic erythrocytes, Assay Type: Micronucleus test, chromosome aberrations, Assay Code: MNTT, Evaluation Type: Evaluation B (Post-1980)): no conclusion | mutagenic call (Species/Cell Type: Mouse, Sex: Male, Assay Type: Sperm morphology, Assay Code: SPIT, Evaluation Type: Evaluation A (Pre-1980)): no conclusion | mutagenic call (Species/Cell Type: Nonhuman bone marrow, Assay Type: Chromosome aberrations, in vivo, Assay Code: CY#-, Evaluation Type: Evaluation A (Pre-1980)): inactive; negative | call [1]: no conclusion | mutagenic call (Species/Cell Type: Nonhuman, Assay Type: Sister-chromatid exchange (SCE) in vitro, Assay Code: SC2+D, Dose Response: With dose response, Evaluation Type: Evaluation B (Post-1980)): active; positive | mutagenic call (Species/Cell Type: Nonhuman, Assay Type: Sister-chromatid exchange (SCE) in vivo, Assay Code: SC3-, Evaluation Type: Evaluation B (Post-1980)): inactive; negative | mutagenic call (Species/Cell Type: Rodents, Sex: Male, Assay Type: Dominant lethal test, Assay Code: DLTT, Evaluation Type: Evaluation A (Pre-1980)): no conclusion | mutagenic call (Species/Cell Type: Saccharomyces cerevisiae, Assay Type: Mitotic recombination or gene conversion, Assay Code: YEC+, Evaluation Type: Evaluation A (Pre-1980)): active; positive | mutagenic call [2]: active; positive | mutagenic call (Species/Cell Type: Salmonella typhimurium, Serratia marcesens, Saccharomyces cerevisiae, Assay Type: Forward and reverse gene mutation, mitotic recombination and gene conversion, DNA effects, host-mediated assay, Assay Code: HM5-, Evaluation Type: Evaluation A (Pre-1980)): inactive; negative

CNC(=O)N(C)N=O
mutagenic call (Species/Cell Type: Arabidopsis species, Assay Type: Gene mutation, Assay Code: ARM+, Evaluation Type: Evaluation A (Pre-1980)): active; positive | mutagenic call [2]: active; positive | mutagenic call (Species/Cell Type: Zea mays (corn), Assay Type: Gene mutation, Assay Code: ZEM+D, Dose Response: With dose response, Evaluation Type: Evaluation A (Pre-1980)): active; positive

Nc1ccc2ccc3cccc4ccc1c2c34
mutagenic call [3]: active; positive

O=c1c(O)c(-c2ccc(O)cc2)oc2cc(O)cc(O)c12
mutagenic call (Species/Cell Type: Mammalian polychromatic erythrocytes, Assay Type: Micronucleus test, chromosome aberrations, Assay Code: MNT+, Evaluation Type: Evaluation B (Post-1980)): active; positive | mutagenic call (Species/Cell Type: Nonhuman, Assay Type: Sister-chromatid exchange (SCE) in vitro, Assay Code: SC2+D*, Activation: With metabolic activation, Dose Response: With dose response, Evaluation Type: Evaluation B (Post-1980)): active; positive

c1cc2ccc3ccc4ccc5cccc6c(c1)c2c3c4c56
mutagenic call (Species/Cell Type: Salmonella typhimurium (one or more of the five standard strains: TA98, TA100, TA1535, TA1537, and TA1538), Assay Type: Histidine reverse gene mutation, Ames assay, Assay Code: SALT, Evaluation Type: Evaluation A (Pre-1980)): no conclusion

Cc1cc2c(c3ccc4ccccc4c13)C(=O)CC2
mutagenic call [3]: active; positive

Cc1ccc2c(c1[N+](=O)[O-])C(=O)c1cccc([N+](=O)[O-])c1C2=O
mutagenic call [2]: active; positive

Cc1c2ccccc2c(C)c2c1ccc1cc(O)ccc12
mutagenic call (Species/Cell Type: Chinese hamster lung (V79) cells, Assay Type: Forward gene mutation at the HPRT or ouabain locus, Assay Code: V79-*, Activation: With metabolic activation, Evaluation Type: Evaluation A (Pre-1980)): inactive; negative | call [1]: no conclusion
